Results: PubChem BioAssay AID1996
Converted amounts (≈) assume the structure as drawn.

Settings: buffer; pH 7.4; 200.0 µM
Molecule `Cc1ccc2[nH]cc(S(=O)(=O)c3ccc(F)cc3)c(=O)c2c1` has a solubility kinetic of 5.5 µg/mL (≈ 17.3 µM). `Nc1cc(=O)[nH]c(SCC(=O)Nc2ccc3c(c2)CCC3)n1` gave a solubility kinetic of 7.8 µg/mL (≈ 24.7 µM). `Cl.O=C(COc1ccc(Br)cc1)NCCN1CCCC1` gave a solubility kinetic of 51.8 µg/mL. `COc1ccc(CNC(=S)Nc2ccccc2F)cc1` showed a solubility kinetic of 34 µg/mL (≈ 117 µM). In the case of `CCSc1nnc(NC(=O)c2c(C)noc2C)s1`, the solubility kinetic is reported as > 42.7 µg/mL. For `Cc1ccc(NC(=O)Nc2ccc3c(c2)CCC3)cc1C`, the solubility kinetic was < 0.3 µg/mL. For `CCOc1ccc(C(=O)NCC(=O)OCC(=O)N2CCCC2)cc1`, the solubility kinetic was > 50.2 µg/mL. For `O=C1Nc2ccccc2CCc2ccccc21`, the solubility kinetic was > 33.5 µg/mL. Work on `COc1ccc(CCNC(=O)c2cccc3ccccc23)cc1OC` yielded a solubility kinetic of 38 µg/mL (≈ 113 µM). `Cc1cccc(OCCn2ccnc2)c1C` showed a solubility kinetic of 22.7 µg/mL (≈ 105 µM). For `NS(=O)(=O)c1cc(C(=O)OC2CCOC2=O)ccc1Cl` (stereo not given), the solubility kinetic was > 48 µg/mL. `Clc1cccc(CN2CCSCC2)c1` showed a solubility kinetic of 3.8 µg/mL (≈ 16.7 µM). With `CC(=O)Nc1sc(-c2ccc(Cl)cc2)nc1-c1ccccc1` the solubility kinetic was < 0.4 µg/mL. For `C=CCn1c(SCC(=O)N(C)C)nc2cc(C(=O)O)ccc2c1=O`, the solubility kinetic was > 52.1 µg/mL. `COc1ccc(NC(=O)CN(C)Cc2cccs2)cc1Cl` showed a solubility kinetic of 42.1 µg/mL (≈ 130 µM). For `CN(C)C(CNC(=O)CSC(=S)N1CCCC1)c1ccccc1` (stereo not given), the solubility kinetic was > 52.7 µg/mL. For `CCOc1ccccc1C1NC(=O)CCC1[N+](=O)[O-]` (stereo not given), the solubility kinetic was > 39.6 µg/mL. With `O=Nc1ccc(O)c2ncccc12` the solubility kinetic was > 26.1 µg/mL. `O=C(Nc1ccccc1)Nc1ccc2c(c1)CCC2` gave a solubility kinetic of 0.4 µg/mL (≈ 1.59 µM). Molecule `Cc1cc(C(=O)CN2C(=O)NC(C)(c3cc(F)ccc3F)C2=O)c(C)n1C1CC1` (stereo not given) has a solubility kinetic of 48.9 µg/mL (≈ 122 µM). With `COc1ccc(NC(=O)c2cc(S(=O)(=O)N3CCCC3)oc2C)cc1` the solubility kinetic was 2.5 µg/mL (≈ 6.86 µM). With `CC(=O)Nc1ccc(C(=O)OCC(=O)N2CCCC2)cc1` the solubility kinetic was > 43.5 µg/mL. In the case of `O=C(CC1SCCNC1=O)Nc1ccccc1Cl` (stereo not given), the solubility kinetic is reported as 38.6 µg/mL (≈ 136 µM). With `NC(=O)c1ccccc1OCC(=O)Nc1ccc2c(c1)CCC2` the solubility kinetic was 9.5 µg/mL (≈ 30.6 µM). For `COc1ccccc1NC(=O)COC(=O)C1CCCC1`, the solubility kinetic was > 41.6 µg/mL. In the case of `COc1cc(CN2CCN(CC3CC3)CC2CCO)cc(OC)c1` (stereo not given), the solubility kinetic is reported as 42.6 µg/mL (≈ 127 µM). `CC(C)CC(=O)c1c[nH]c(C(=O)NCc2cccnc2)c1` gave a solubility kinetic of 30.9 µg/mL (≈ 108 µM). In the case of `S=c1[nH]ccn1-c1ccccc1Cl`, the solubility kinetic is reported as > 31.6 µg/mL. In the case of `Cc1[nH]ccc(=O)c1OCC(=O)O`, the solubility kinetic is reported as > 27.5 µg/mL. In the case of `O=c1[nH]cc(S(=O)(=O)Nc2ccc3c(c2)OCO3)c(=O)[nH]1`, the solubility kinetic is reported as > 46.7 µg/mL. Work on `CC(C)(C)NS(=O)(=O)c1ccc2[nH]c3c(c2c1)CCCCC3` yielded a solubility kinetic of 8.8 µg/mL (≈ 27.5 µM). With `N/C(=N\OC(=O)C1CCCCC1)c1cccc(Br)c1` the solubility kinetic was 3.5 µg/mL (≈ 10.8 µM). With `CCC(C)n1c(C)cc(C(N)=O)c1C` (stereo not given) the solubility kinetic was 26.8 µg/mL (≈ 138 µM). In the case of `Cn1c2c(c(=O)c3ccccc31)CCCC2`, the solubility kinetic is reported as > 32 µg/mL. For `O=NN1CCN(c2ccncc2S(=O)(=O)N2CCCCC2)CC1`, the solubility kinetic was > 50.9 µg/mL. With `CC(=O)c1ccc(N2C(=O)CC(N3CCN(S(=O)(=O)c4ccc(C)c(C)c4)CC3)C2=O)cc1` (stereo not given) the solubility kinetic was 15 µg/mL (≈ 31.9 µM). `CC1CC(C)CN(C(=O)C(C)N2CCN(S(=O)(=O)c3ccc(Br)s3)CC2)C1` (stereo not given) gave a solubility kinetic of 29.7 µg/mL (≈ 62.1 µM). With `Cc1ccc(CNCC(O)c2ccccc2)s1.Cl` (stereo not given) the solubility kinetic was > 42.6 µg/mL. With `Cc1noc(C)c1C(=O)OCC(=O)Nc1ncc(Cl)c(C)c1Cl` the solubility kinetic was > 53.7 µg/mL. In the case of `Cc1ccc(S(=O)(=O)NCc2ccncc2)cc1C`, the solubility kinetic is reported as > 41.5 µg/mL. In the case of `Cc1ccc(C(=O)NC2=NCCS2)cc1`, the solubility kinetic is reported as 32.9 µg/mL (≈ 149 µM). For `O=C1CN(S(=O)(=O)c2cc(Br)ccc2Br)CCN1`, the solubility kinetic was > 59.7 µg/mL. For `CC(=O)c1c(C)[nH]c(C(=O)COC(=O)Cc2ccccc2F)c1C`, the solubility kinetic was > 49.7 µg/mL. In the case of `CC1CN(C(=O)c2ccc(NS(=O)(=O)c3ccc(C(C)(C)C)cc3)cc2)CC(C)O1` (stereo not given), the solubility kinetic is reported as 48 µg/mL (≈ 111 µM). Molecule `Cc1cc(Cc2c(O)[nH]c(=S)[nH]c2=O)ccc1OC(C)C` has a solubility kinetic of 34.8 µg/mL (≈ 114 µM). Work on `CCn1c2ccccc2c2cc(NC(=O)c3ccc(=O)oc3)ccc21` yielded a solubility kinetic of 1.2 µg/mL (≈ 3.61 µM). Molecule `CNC(=O)c1c(NC(=O)c2ccco2)sc2c1CCC2` has a solubility kinetic of 3.3 µg/mL (≈ 11.4 µM). In the case of `O=C1NCCCCC1NS(=O)(=O)c1ccccc1` (stereo not given), the solubility kinetic is reported as > 40.2 µg/mL. For `O=C(N/N=C/c1cccnc1)c1ccco1`, the solubility kinetic was > 32.3 µg/mL. In the case of `OCc1nc2ccccc2n1CCc1ccccc1`, the solubility kinetic is reported as 36.1 µg/mL (≈ 143 µM). `CCc1ccccc1NC(=O)CCC(=O)c1cccs1` showed a solubility kinetic of 32.1 µg/mL (≈ 112 µM). In the case of `c1ccc(-c2csc(NC3CCCCC3)n2)cc1`, the solubility kinetic is reported as 4.1 µg/mL (≈ 15.9 µM). With `O=C(CCCOc1ccc(Cl)cc1Cl)Nc1ccccc1C(=O)O` the solubility kinetic was > 55.2 µg/mL. For `OC1CCCCC1N1CCC(c2ccccc2)CC1` (stereo not given), the solubility kinetic was > 38.9 µg/mL. In the case of `CC(=O)Nc1cc2c3c(c1)CC(=O)N3CCC2`, the solubility kinetic is reported as > 34.5 µg/mL. For `O=C(COC(=O)c1cccnc1Cl)NC1CCCCCC1`, the solubility kinetic was > 46.6 µg/mL. In the case of `CC(OC(=O)Cn1cc(C(F)(F)F)ccc1=O)C(=O)N(C)c1ccccc1` (stereo not given), the solubility kinetic is reported as 57.2 µg/mL (≈ 150 µM). In the case of `CSCC(=O)N1CCCC(CO)(CCCc2ccccc2)C1` (stereo not given), the solubility kinetic is reported as > 48.2 µg/mL. With `Nc1cc(S(=O)(=O)N2CCCCC2)ccc1N1CCOCC1` the solubility kinetic was 38.7 µg/mL (≈ 119 µM). Work on `Cc1ccccc1OCC(=O)NCCCNC(=O)c1ccco1` yielded a solubility kinetic of 43.9 µg/mL (≈ 139 µM).
